# PubChem BioAssay AID248 (DTP/NCI, 2004)
# Several values for one entry are separate records, joined by “and”; a condition that tells them apart may be missing. Equal entries are not always repeated. Toxic doses and inconclusive results are not listed.
# System: L1210 leukemia ip in BDF1 mice, survival T/C
# Assay: NCI In Vivo Anticancer Drug Screen. Data for tumor model L1210 Leukemia (intraperitoneal) in B6D2F1 (BDF1) mice
# Conditions: endpoint: mean survival time, vehicle: saline, higher = longer survival
# Summary of the method: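 Antitumor effect is assessed in tumor-bearing animals. Survival in the compound arm is compared with a vehicle-dosed control arm and expressed as their quotient.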
smiles,measurement,setting,value
CN[C@H]1CCc2cc(OC)c(OC)c(OC)c2-c2ccc(OC)c(=O)cc21,T/C,"dose: 0.14 mg/kg/injection, schedule: Q01DX009 (ip)",95 % of control
same,T/C,"dose: 0.23 mg/kg/injection, schedule: Q01DX009 (ip)",104 % of control
same,T/C,"dose: 0.39 mg/kg/injection, schedule: Q01DX009 (ip)",112 % of control
same,T/C,"dose: 0.39 mg/kg/injection, schedule: Q04DX003 (ip)",101 % of control
same,T/C,"dose: 0.65 mg/kg/injection, schedule: Q01DX009 (ip)",110 % of control
same,T/C,"dose: 0.65 mg/kg/injection, schedule: Q04DX003 (ip)",102 % of control
same,T/C,"dose: 1.0 mg/kg/injection, schedule: Q03HX008 (ip)",118 % of control
same,T/C,"dose: 1.08 mg/kg/injection, schedule: Q01DX009 (ip)",110 % of control
same,T/C,"dose: 1.08 mg/kg/injection, schedule: Q04DX003 (ip)",101 % of control
same,T/C,"dose: 1.8 mg/kg/injection, schedule: Q04DX003 (ip)",101 % of control
same,T/C,"dose: 2.0 mg/kg/injection, schedule: Q01DX004 (ip)",106 % of control
same,T/C,"dose: 2.0 mg/kg/injection, schedule: Q01DX004 (oral)",103 % of control
same,T/C,"dose: 2.0 mg/kg/injection, schedule: Q03HX008 (ip)",120 % of control
same,T/C,"dose: 3.0 mg/kg/injection, schedule: Q01DX001 (ip)",100 % of control
same,T/C,"dose: 3.0 mg/kg/injection, schedule: Q04DX003 (ip)",95 % of control
same,T/C,"dose: 4.0 mg/kg/injection, schedule: Q01DX001 (oral)",103 % of control
same,T/C,"dose: 4.0 mg/kg/injection, schedule: Q01DX004 (ip)",106 % of control
same,T/C,"dose: 4.0 mg/kg/injection, schedule: Q01DX004 (oral)",111 % of control
same,T/C,"dose: 5.0 mg/kg/injection, schedule: Q01DX001 (ip)",103 % of control
same,T/C,"dose: 5.3 mg/kg/injection, schedule: Q01DX001 (ip)",102 % of control
same,T/C,"dose: 8.0 mg/kg/injection, schedule: Q01DX001 (ip)",101 % of control and 102 % of control
same,T/C,"dose: 8.0 mg/kg/injection, schedule: Q01DX001 (oral)",108 % of control
same,T/C,"dose: 8.0 mg/kg/injection, schedule: Q01DX004 (ip)",113 % of control
same,T/C,"dose: 8.0 mg/kg/injection, schedule: Q01DX004 (oral)",111 % of control
same,T/C,"dose: 8.0 mg/kg/injection, schedule: Q03HX008 (ip)",156 % of control
same,T/C,"dose: 8.0 mg/kg/injection, schedule: Q## X002 (ip)",119 % of control
same,T/C,"dose: 8.0 mg/kg/injection, schedule: Q## X003 (ip)",100 % of control
same,T/C,"dose: 8.0 mg/kg/injection, schedule: Q## X008 (ip)",107 % of control
same,T/C,"dose: 8.0 mg/kg/injection, schedule: Q## X016 (ip)",110 % of control
same,T/C,"dose: 9.0 mg/kg/injection, schedule: Q01DX001 (ip)",104 % of control
same,T/C,"dose: 12.0 mg/kg/injection, schedule: Q01DX001 (ip)",104 % of control
same,T/C,"dose: 16.0 mg/kg/injection, schedule: Q01DX001 (ip)",105 % of control
same,T/C,"dose: 16.0 mg/kg/injection, schedule: Q01DX001 (oral)",109 % of control
same,T/C,"dose: 16.0 mg/kg/injection, schedule: Q01DX004 (ip)",118 % of control
same,T/C,"dose: 16.0 mg/kg/injection, schedule: Q## X002 (ip)",98 % of control
same,T/C,"dose: 16.0 mg/kg/injection, schedule: Q## X003 (ip)",112 % of control
same,T/C,"dose: 16.0 mg/kg/injection, schedule: Q## X016 (ip)",112 % of control
same,T/C,"dose: 16.0 mg/kg/injection, schedule: Q## X024 (ip)",100 % of control
same,T/C,"dose: 18.0 mg/kg/injection, schedule: Q01DX001 (ip)",114 % of control
same,T/C,"dose: 32.0 mg/kg/injection, schedule: Q01DX001 (ip)",101 % of control and 103 % of control
same,T/C,"dose: 32.0 mg/kg/injection, schedule: Q01DX001 (oral)",119 % of control and 124 % of control
same,T/C,"dose: 32.0 mg/kg/injection, schedule: Q01DX009 (ip)",102 % of control
same,T/C,"dose: 32.0 mg/kg/injection, schedule: Q## X002 (ip)",117 % of control
same,T/C,"dose: 32.0 mg/kg/injection, schedule: Q## X003 (ip)",104 % of control
same,T/C,"dose: 32.0 mg/kg/injection, schedule: Q## X016 (ip)",110 % of control
same,T/C,"dose: 64.0 mg/kg/injection, schedule: Q01DX001 (ip)",114 % of control and 116 % of control
same,T/C,"dose: 64.0 mg/kg/injection, schedule: Q## X016 (ip)",89 % of control
same,T/C,"dose: 128.0 mg/kg/injection, schedule: Q01DX001 (ip)",124 % of control
same,T/C,"dose: 256.0 mg/kg/injection, schedule: Q01DX001 (ip)",123 % of control
